Data from patent US12714683B2, “Treatment of CNS disorders with sleep disturbances” (University of Copenhagen, priority 2019, dated 2026).

Experiments:
rat CaMK2a = assay: 3H-HOCPCA filtration binding to recombinant wild-type or mutated CaMK2a expressed in HEK293T cells; conditions: hub domain mutations Arg433Gln, Arg453Gln, Arg469Cys/Arg469Gln; HEK whole cell homogenates; expression confirmed by WB; FIG. 2
Protocol: ^3H-HOCPCA Binding to Recombinant CaMK2a Expressed in HEK293T Cells
HEK293T cells were cultured using standard conditions, using Dulbecco's modified Eagle Medium with GlutaMax, 10% fetal bovine serum and 1% penicillin-streptomycin, and incubated at 37° C. in a humidified atmosphere of […] and 5% CO2. Site-directed mutagenesis was done using point mutations and performed by GenScript USA Inc. Cells were transfected with wild-type or mutated cmyc-tagged rat CaMK2a (Origene construct RR201121), using polyethimine, linear, MW 25000 (Polysciences Inc., Warrington, PA, USA). Whole cell homogenates were prepared 48 hr post-transfection by washing the cells with ice-cold 1×PBS and harvesting by scraping. Cells were collected and centrifuged for 10 min at 1000×g. Cell pellets were resuspended in ice-cold 1×PBS and homogenized using 2×1 mm zirkonium beads in a bullet blender for 20 s at max speed (NextAdvance, NY, USA). Homogenates were cleared by centrifugation (10 min, 4° C., […]). Protein concentration was determined using the Bradford protein assay. […] Nonspecific binding was determined with 1-10 mM GHB. […] The dried filters were added scintillation liquid and radioactivity measured on a Tricarb 2100 Scintillation counter (Packard). […]
Total expression levels of CaMK2a were assessed by Western blot with anti-myc-Alexa488 (MA1980-A488, ThermoFisher Scientific). […]

CaMK2a [1] = target: T1, CaMK2a (Mus musculus, UniProt P11798); assay: Mouse brain 3H-HOCPCA autoradiography (Angelman syndrome Ube3a m-/p+ vs wild-type brain slices); type: binding; conditions: Ube3a m-/p+ (HET, Angelman syndrome) mice vs WT; 1 nM radioligand; most pronounced in hippocampus; FIG. 1
T1 construct: mouse brains from either (Ube3a^m−/p+) or wildtype mice, were dissected, sliced on a cryostat; from tissue; host or cells: mouse brain slices (Ube3a m-/p+ and wild-type)

[2] = system: DTA narcolepsy mouse model; assay: DTA mouse model of narcolepsy, sleep-wake EEG/EMG and cataplexy; type: in vivo; conditions: two-way ANOVA, p=0.0017, n=5-6; FIG. 3
Source text: (§1) Using the DTA narcolepsy mouse model we are determining changes in sleepwake EEG/EMG patterns (including cataplexy) at different time points (1 day to 3 weeks) under the influence of a compound of Formula I (Ph-HTBA). After drug cessation, EEG/EMG changes are then further mapped for up to 4 weeks. Under anesthesia with isoflurane (2% to 2.5% in O2) electrodes are placed in the scull and neck muscles of the mice. After 5-10 days recovery the electrodes are connected to a recording system, and EEG/EMG signals are recorded with synchronised video recordings. From the data, sleep/wake parameters and cataplexy episodes are scored and calculated FIG. 3).

[3] = system: hypocretin knock-out mouse model; assay: Hypocretin knock-out mouse model of narcolepsy, sleep-wake EEG/EMG and cataplexy; type: in vivo; conditions: for cataplexy: mixed-effects model with post hoc Sidak, FIG. 4
Source text: as §1, with “hypocretin knock-out” for “DTA narcolepsy”, “determine” for “are determining”, “sleep-wake” for “sleepwake”, “compound (HOCPCA)” for “compound”, “I.” for “I (Ph-HTBA).”, “(FIG. 4-5).” for “FIG. 3).”

GABAB receptors = GABAB receptors (Homo sapiens, UniProt Q9UBS5); conditions: cited from earlier work
CaMK2a [4] = target: CaMK2a (Homo sapiens, UniProt Q9UQM7); conditions: cited from earlier work
[5] = system: mouse model of narcolepsy type 1; conditions: Black et al. J Neurosci 2014; cited from earlier work

GABAB receptors, sequence (Q9UBS5 15-961 limits assumed): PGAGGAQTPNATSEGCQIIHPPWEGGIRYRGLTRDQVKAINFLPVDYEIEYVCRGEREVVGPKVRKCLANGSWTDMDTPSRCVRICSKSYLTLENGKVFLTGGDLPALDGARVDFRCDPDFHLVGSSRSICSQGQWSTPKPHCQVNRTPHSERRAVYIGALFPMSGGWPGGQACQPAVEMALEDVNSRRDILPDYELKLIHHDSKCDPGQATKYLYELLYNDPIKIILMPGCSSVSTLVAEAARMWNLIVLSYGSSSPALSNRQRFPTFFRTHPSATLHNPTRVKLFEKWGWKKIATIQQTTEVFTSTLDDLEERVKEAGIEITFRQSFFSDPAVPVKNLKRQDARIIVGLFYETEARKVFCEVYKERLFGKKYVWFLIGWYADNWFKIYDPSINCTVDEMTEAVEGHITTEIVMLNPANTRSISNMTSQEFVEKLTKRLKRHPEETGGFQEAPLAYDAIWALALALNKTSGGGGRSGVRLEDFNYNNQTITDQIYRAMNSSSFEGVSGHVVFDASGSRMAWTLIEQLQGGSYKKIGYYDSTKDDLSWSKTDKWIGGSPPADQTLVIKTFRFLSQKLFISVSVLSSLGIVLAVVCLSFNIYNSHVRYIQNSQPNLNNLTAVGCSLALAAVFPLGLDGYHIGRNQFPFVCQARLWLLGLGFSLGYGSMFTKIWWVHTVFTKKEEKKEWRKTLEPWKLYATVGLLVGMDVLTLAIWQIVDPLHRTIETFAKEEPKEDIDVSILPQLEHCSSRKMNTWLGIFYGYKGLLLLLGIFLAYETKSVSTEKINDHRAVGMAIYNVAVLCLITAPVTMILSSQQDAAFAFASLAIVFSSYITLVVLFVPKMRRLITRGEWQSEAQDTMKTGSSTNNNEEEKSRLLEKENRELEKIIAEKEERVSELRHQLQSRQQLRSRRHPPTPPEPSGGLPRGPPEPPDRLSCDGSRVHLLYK
GABAB receptors, sequence (O75899 42-941 partner): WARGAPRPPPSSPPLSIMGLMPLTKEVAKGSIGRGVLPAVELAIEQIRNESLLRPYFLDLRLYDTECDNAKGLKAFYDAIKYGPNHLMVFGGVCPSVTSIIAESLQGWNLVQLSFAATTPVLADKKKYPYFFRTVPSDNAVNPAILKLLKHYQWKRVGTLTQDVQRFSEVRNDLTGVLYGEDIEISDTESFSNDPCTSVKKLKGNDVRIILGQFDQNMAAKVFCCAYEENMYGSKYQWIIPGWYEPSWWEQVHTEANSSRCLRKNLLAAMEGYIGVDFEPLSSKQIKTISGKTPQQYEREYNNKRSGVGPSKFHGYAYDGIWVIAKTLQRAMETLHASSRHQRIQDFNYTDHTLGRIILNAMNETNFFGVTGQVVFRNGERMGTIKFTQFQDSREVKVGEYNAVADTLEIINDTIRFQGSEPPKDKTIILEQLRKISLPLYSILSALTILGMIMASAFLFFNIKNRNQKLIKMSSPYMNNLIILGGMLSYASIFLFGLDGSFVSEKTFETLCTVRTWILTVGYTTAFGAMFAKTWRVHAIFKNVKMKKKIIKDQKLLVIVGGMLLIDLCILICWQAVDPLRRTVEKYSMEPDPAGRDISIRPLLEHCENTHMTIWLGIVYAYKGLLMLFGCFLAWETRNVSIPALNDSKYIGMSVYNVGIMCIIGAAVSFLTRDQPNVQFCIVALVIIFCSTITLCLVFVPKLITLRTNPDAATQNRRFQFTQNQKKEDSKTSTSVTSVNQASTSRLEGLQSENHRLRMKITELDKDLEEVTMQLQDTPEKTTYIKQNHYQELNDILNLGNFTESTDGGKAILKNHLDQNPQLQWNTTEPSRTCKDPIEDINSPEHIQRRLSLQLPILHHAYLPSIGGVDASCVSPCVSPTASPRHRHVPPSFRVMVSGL
CaMK2a (Homo sapiens, UniProt Q9UQM7), sequence (Q9UQM7 whole entry): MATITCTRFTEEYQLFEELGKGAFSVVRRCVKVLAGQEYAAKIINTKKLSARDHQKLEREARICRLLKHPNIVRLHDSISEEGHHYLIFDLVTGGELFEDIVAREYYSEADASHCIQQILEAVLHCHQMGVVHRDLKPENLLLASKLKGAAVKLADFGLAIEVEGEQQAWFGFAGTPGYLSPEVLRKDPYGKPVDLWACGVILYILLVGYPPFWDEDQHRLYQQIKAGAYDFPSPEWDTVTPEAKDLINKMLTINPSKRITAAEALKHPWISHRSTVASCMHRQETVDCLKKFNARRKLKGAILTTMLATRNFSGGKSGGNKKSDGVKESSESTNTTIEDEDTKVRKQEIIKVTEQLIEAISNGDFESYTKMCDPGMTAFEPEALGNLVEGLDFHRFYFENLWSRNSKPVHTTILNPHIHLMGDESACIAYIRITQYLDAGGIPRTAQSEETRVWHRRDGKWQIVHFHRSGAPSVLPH
T1 sequence (P11798 whole entry): as the sequence (Q9UQM7 whole entry) above, with S324N counted along it

For O=C(O)C1=CC(O)CC1 (stereo not drawn) [^3H-HOCPCA], which “3H-HOCPCA binding to mutated CaMK2a compared to wild-type” value (rat CaMK2a) is on record?
The value was “completely abolished binding”.

And the “3H-HOCPCA binding levels in brain slices” value (CaMK2a [1])?
Its value is “Increased Binding”.

With O=C(O)/C=C1\CCCc2cc(-c3ccccc3)ccc2C1O (stereo not drawn) [Ph-HTBA] as the compound, how does the “treatment effect on sleep/wake parameters and cataplexy episodes” value [2] read?
Its value is “overall statistical significant effect”.

With O=C(O)C1=CC(O)CC1 (stereo not drawn) [HOCPCA, 3-hydroxycyclopent-1-enecarboxylic acid] as the compound, how does the cataplexy ([3]; day 8, p=0.044) read?
The cataplexy was “decreases cataplexy significantly”.

And the cataplexy ([3]; day 15, p=0.010)?
Its cataplexy is “decreases cataplexy significantly”.

What about the “wakefulness, medium long wake bouts” value ([3]; p=0.01, two-way ANOVA with post hoc Dunnett) of the same compound?
The value was “significant decrease of medium long wake bouts”.

What does the source list for O=C(O)CCCO [GHB]?
binding affinity to GABAB receptors (GABAB receptors): low affinity (millimolar); binding affinity to specific protein in neurons (CaMK2a) (CaMK2a [4]): high affinity (nanomolar to micromolar)

With NCC(CC(=O)O)c1ccc(Cl)cc1 (stereo not drawn) [baclofen] as the compound, how does the “efficacy on narcolepsy symptoms” value [5] read?
The value was “has efficacy on narcolepsy symptoms”.
